Results taken from DBAASP.
≈ marks a conversion by molar mass, not a printed value. Where “and” joins values, the source holds several entries; their conditions need not be identical. Equal values may be shown once. Blank lines part the entries; values can stand above or below the molecule they belong to.

What was measured:
Assay in all cases: ≥ marks a high value that may be exact or a test limit, other limits are often not marked, values filed in µg/mL are converted to µM
Aerococcus viridans = tested on: Aerococcus viridans
Bacillus megaterium = tested on: Bacillus megaterium
Enterococcus faecalis = tested on: Enterococcus faecalis
Escherichia coli 1106 = tested on: Escherichia coli 1106
Escherichia coli D22 = tested on: Escherichia coli D22
Escherichia coli D31 = tested on: Escherichia coli D31
Micrococcus luteus = tested on: Micrococcus luteus
[1] = tested on: Pseudoalteromonas carrageenovora ATCC 43555
Pseudomonas alginovora = tested on: Pseudomonas alginovora
Salmonella typhimurium = tested on: Salmonella typhimurium
Staphylococcus aureus = tested on: Staphylococcus aureus
[2] = tested on: Escherichia coli PCM 2057
[3] = tested on: Staphylococcus aureus PCM 1944
[4] = tested on: Acinetobacter calcoaceticus
Citrobacter freundii = tested on: Citrobacter freundii
Enterobacter cloacae = tested on: Enterobacter cloacae
[5] = tested on: Enterococcus faecalis ATCC 29212
Enterococcus faecium = tested on: Enterococcus faecium
Escherichia coli = tested on: Escherichia coli
Klebsiella aerogenes = tested on: Klebsiella aerogenes
Klebsiella oxytoca = tested on: Klebsiella oxytoca
[6] = tested on: Klebsiella pneumoniae ATCC 700603
Proteus mirabilis = tested on: Proteus mirabilis
Proteus vulgaris = tested on: Proteus vulgaris
[7] = tested on: Pseudomonas aeruginosa ATCC 27853
Pseudomonas aeruginosa = tested on: Pseudomonas aeruginosa
Serratia marcescens = tested on: Serratia marcescens
[8] = tested on: Staphylococcus epidermidis ATCC 14990
[9] = tested on: Staphylococcus epidermidis
[10] = tested on: Staphylococcus haemolyticus
[11] = tested on: Streptococcus agalactiae ATCC 27956
[12] = tested on: Streptococcus oralis ATCC 35037
[13] = tested on: Streptococcus pneumoniae ATCC 49619
Streptococcus pneumoniae = tested on: Streptococcus pneumoniae
[14] = tested on: Escherichia coli O157:H7 ATCC 35150
[15] = tested on: Salmonella enterica serovar Typhimurium
Theileria equi = tested on: Theileria equi
[16] = tested on: Klebsiella pneumoniae CIP 8291
[17] = tested on: Lactococcus lactis subsp. cremoris I116
Listeria ivanovii LMA 94 = tested on: Listeria ivanovii LMA 94
[18] = tested on: Staphylococcus aureus CIP 677
[19] = tested on: Bacillus subtilis KCCM 11495
[20] = tested on: Escherichia coli KCCM 11569

MIC (Aerococcus viridans): 0.849 µM (≈ 3.2 µg/mL)
MIC (Bacillus megaterium): 0.849 µM (≈ 3.2 µg/mL)
MIC (Enterococcus faecalis): 3.54 µM (≈ 13.3 µg/mL)
MIC (Escherichia coli 1106): 10 µM (≈ 37.7 µg/mL)
MIC (Escherichia coli D22): 7.07 µM (≈ 26.7 µg/mL)
MIC (Escherichia coli D31): 3.54 µM (≈ 13.3 µg/mL)
MIC (Micrococcus luteus): 0.849 µM (≈ 3.2 µg/mL)
MIC [1]: 3.54 µM (≈ 13.3 µg/mL)
MIC (Pseudomonas alginovora): 3.54 µM (≈ 13.3 µg/mL)
MIC (Salmonella typhimurium): 10 µM (≈ 37.7 µg/mL)
MIC (Staphylococcus aureus): 7.07 µM (≈ 26.7 µg/mL)
Compound: C[C@@H]1NC(=O)[C@H](Cc2c[nH]c3ccccc23)NC(=O)CNC(=O)[C@H](CCCCN)NC(=O)[C@@H]2CSSC[C@@H](C(=O)O)NC(=O)[C@H](CCCN=C(N)N)NC(=O)[C@H](Cc3ccccc3)NC(=O)[C@@H]3CSSC[C@H](NC(=O)[C@H](CCCCN)NC(=O)[C@H](C)NC(=O)[C@H](CCCCN)NC(=O)[C@@H]4CSSC[C@H](NC(=O)[C@H](Cc5ccc(O)cc5)NC(=O)[C@H](CSSC[C@H](NC(=O)CN)C(=O)N[C@@H](C)C(=O)N[C@@H](CO)C(=O)N[C@@H](CCCN=C(N)N)C(=O)N4)NC(=O)[C@H](CCCN=C(N)N)NC(=O)CNC(=O)[C@H](CCCN=C(N)N)NC(=O)[C@H](Cc4ccccc4)NC(=O)[C@H](CO)NC(=O)[C@H](C)NC(=O)[C@H](CO)NC1=O)C(=O)N[C@@H](CCCCN)C(=O)N3)C(=O)N[C@@H](C)C(=O)NCC(=O)N[C@@H](CCCN=C(N)N)C(=O)N[C@@H](CCCN=C(N)N)C(=O)N2 [GCASRCKAKCAGRRCKGWASASFRGRCYCKCFRC]

MIC [2]: ≥ 546 µM
MIC [3]: ≥ 546 µM
Compound: CC[C@H](C)[C@H](N)C(=O)NCC(=O)N[C@H]1CSSC[C@@H](C(=O)N[C@@H](Cc2ccccc2)C(=O)N[C@H](C(=O)N[C@@H](CCCCN)C(N)=O)C(C)C)NC(=O)[C@@H]2CCCN2C(=O)[C@H](CCCN=C(N)N)NC(=O)[C@@H]2CCCN2C(=O)[C@@H]2CCCN2C(=O)[C@H]([C@@H](C)CC)NC(=O)[C@H](CO)NC(=O)[C@H](CCCCN)NC(=O)[C@H]([C@@H](C)O)NC(=O)[C@H](Cc2c[nH]c3ccccc23)NC1=O [IGCWTKSIPPRPCFVK]

MIC [4]: ≥ 50.3 µM
MIC (Citrobacter freundii): ≥ 50.3 µM
MIC (Enterobacter cloacae): 2.22 µM (≈ 5.65 µg/mL)
MIC [5]: 15.7 µM and 31.5 µM
MIC (Enterococcus faecium): 1.57 µM (≈ 3.99 µg/mL)
MIC (Escherichia coli): 2.22 µM (≈ 5.65 µg/mL)
MIC (Klebsiella aerogenes): 8.9 µM (≈ 22.6 µg/mL)
MIC (Klebsiella oxytoca): 17.8 µM (≈ 45.2 µg/mL)
MIC [6]: 47.2 µM and 62.9 µM
MIC (Proteus mirabilis): 25.2 µM (≈ 63.9 µg/mL)
MIC (Proteus vulgaris): 17.8 µM (≈ 45.2 µg/mL)
MIC [7]: 62.9 µM (≈ 160 µg/mL)
MIC (Pseudomonas aeruginosa): > 50.3 µM
MIC (Serratia marcescens): 4.45 µM (≈ 11.3 µg/mL)
MIC (Staphylococcus aureus): 3.15 µM (≈ 7.99 µg/mL)
MIC [8]: 31.5 µM and ≥ 62.9 µM
MIC [9]: 8.9 µM (≈ 22.6 µg/mL)
MIC [11]: ≥ 62.9 µM
MIC [12]: 31.5 µM and ≥ 78.6 µM
MIC [13]: 7.86 µM and 15.7 µM
MIC (Streptococcus pneumoniae): 8.9 µM (≈ 22.6 µg/mL)
Compound: NC(=O)CC[C@H](N)C(=O)N[C@@H](Cc1c[nH]c2ccccc12)C(=O)NCC(=O)N[C@@H](CCCN=C(N)N)C(=O)N[C@@H](CCCN=C(N)N)C(=O)N[C@H]1CSSC[C@@H]2NC(=O)[C@H](Cc3ccc(O)cc3)NC(=O)[C@H](CCCN=C(N)N)NC(=O)[C@H](CCCN=C(N)N)NC(=O)CNC(=O)[C@@H]3CCCN3C(=O)CNC(=O)[C@H](Cc3c[nH]c4ccccc34)NC(=O)CNC(=O)[C@H](CSSC[C@@H](C(=O)O)NC(=O)[C@H](Cc3c[nH]c4ccccc34)NC(=O)[C@H](CCCN=C(N)N)NC(=O)[C@H](CCCN=C(N)N)NC2=O)NC1=O [QWGRRCCGWGPGRRYCRRWC]
MIC [10]: 4.45 µM (≈ 11.3 µg/mL)

MIC [14]: 2 µM (≈ 4.61 µg/mL)
MIC (Pseudomonas aeruginosa): 2 µM (≈ 4.61 µg/mL)
MIC [15]: 10 µM (≈ 23.1 µg/mL)
MIC (Staphylococcus aureus): 2 µM (≈ 4.61 µg/mL)
MIC (Theileria equi): 5 µM (≈ 11.5 µg/mL)
Compound: CC[C@H](C)[C@H](NC(=O)CNC(=O)[C@H](C)NC(=O)[C@H](CS)NC(=O)[C@H](Cc1ccc(O)cc1)NC(=O)CNC(=O)CNC(=O)[C@H](CCCN=C(N)N)NC(=O)[C@H](CCCN=C(N)N)NC(=O)CNC(=O)[C@@H](NC(=O)[C@@H](N)CO)[C@@H](C)CC)C(=O)N[C@H](C(=O)N[C@@H](CCCCN)C(=O)N[C@@H](CCC(N)=O)C(=O)N[C@H](C(=O)N[C@@H](CS)C(=O)N[C@H](C(=O)N[C@@H](CS)C(=O)N[C@@H](Cc1ccc(O)cc1)C(=O)N[C@@H](CCCN=C(N)N)C(=O)O)[C@@H](C)O)[C@@H](C)O)[C@@H](C)CC [SIGRRGGYCAGIIKQTCTCYR]

MIC [16]: ≥ 64 µM
MIC [17]: 4 µM (≈ 10.8 µg/mL)
MIC (Listeria ivanovii LMA 94): 8 µM (≈ 21.7 µg/mL)
MIC [18]: 8 µM (≈ 21.7 µg/mL)
Compound: CC[C@H](C)[C@H](NC(=O)[C@H](CCCCN)NC(=O)[C@H](CC(C)C)NC(=O)[C@H](C)NC(=O)[C@H](CO)NC(=O)CNC(=O)[C@H](CC(C)C)NC(=O)[C@@H](N)Cc1c[nH]c2ccccc12)C(=O)NCC(=O)N[C@@H](C)C(=O)N[C@@H](CCCCN)C(=O)N[C@@H](CC(C)C)C(=O)N[C@@H](CC(C)C)C(=O)N1CCC[C@H]1C(=O)N[C@@H](CO)C(=O)N[C@H](C(=O)N[C@H](C(=O)NCC(=O)N[C@@H](CC(C)C)C(=O)N[C@@H](Cc1ccccc1)C(=O)N[C@@H](CCCCN)C(=O)N[C@@H](CCCCN)C(=O)N[C@@H](CCCCN)C(=O)N[C@@H](CCCCN)C(=O)N[C@@H](CCC(N)=O)C(=O)O)C(C)C)C(C)C [WLGSALKIGAKLLPSVVGLFKKKKQ]

MIC [19]: 0.538 µM (≈ 1 µg/mL)
MIC [20]: 1.52 µM (≈ 2.83 µg/mL)
Compound: CC(C)C[C@H](NC(=O)[C@@H](NC(=O)CNC(=O)[C@H](CCCCN)NC(=O)[C@H](C)NC(=O)[C@H](CS)NC(=O)[C@H](CC(N)=O)NC(=O)[C@H](CC(C)C)NC(=O)CNC(=O)[C@H](Cc1cnc[nH]1)NC(=O)[C@H](Cc1cnc[nH]1)NC(=O)[C@H](CC(C)C)NC(=O)[C@H](CC(C)C)NC(=O)[C@H](C)NC(=O)[C@H](CC(N)=O)NC(=O)[C@H](CC(C)C)NC(=O)[C@@H](N)Cc1c[nH]c2ccccc12)C(C)C)C(N)=O [WLNALLHHGLNCAKGVL]
